Format in all cases: cell-based
The test system of assay [1] is HCT116 cells. The assay can be described thus: Colony formation assay, HCT116. To be noted: HCT116, 0.5 to 5 μmol/L (Example 23).
Assay [2] concerns HCT116 cells. The assay can be described thus: Colony formation assay, HCT116. The protocol:
Colony forming assay showing the ability of colon (SW620, HCT 116), non-small cell lung (A549, H460, H1299 and H358) and breast (MCF7) cancer cells to survive and proliferate following transient 24 hour exposure to single agent PCI 1013, FUdR and combinations. Specifically, cells were seeded at densities between 50 and 100 cells/well in 24-well plates. Twenty-four hours later, cells were treated with increasing concentrations of PCI 10213, a fixed dose of FUdR and combinations of these. After 24 hours, drug was removed, cells were rinsed and allowed to outgrow for 10-14 days. At the conclusion of the outgrowth, cells were fixed in 60% ice cold methanol and stained with 0.1% crystal violet, scanned and counted. Data is presented as percentage of untreated controls (mean±SD). Fraction affected and combination indexes were calculated according to the method of Chou and Talalay where <1 is indicative of a synergistic drug interaction. […]
(§1) In colorectal cancer cells, concentrations of PCI 10213 ranging from 3.1 μmol/L to 50 μmol/L were combined with 0.5 μmol/L FUdR in HCT116 cells and 1 μmol/L FUdR in SW620 cells.

Assay [3] relates to MCF-7 breast cancer cell line. The assay is described as follows: Colony formation assay, MCF-7. The settings on record: MCF-7, 0.5 μmol/L. The method, then:
(§2) Colony forming assay showing the ability of colon (SW620, HCT 116), non-small cell lung (A549, H460, H1299 and H358) and breast (MCF7) cancer cells to survive and proliferate following transient 24 hour exposure to single agent PCI 1013, FUdR and combinations. Specifically, cells were seeded at densities between 50 and 100 cells/well in 24-well plates. Twenty-four hours later, cells were treated with increasing concentrations of PCI 10213, a fixed dose of FUdR and combinations of these. After 24 hours, drug was removed, cells were rinsed and allowed to outgrow for 10-14 days. At the conclusion of the outgrowth, cells were fixed in 60% ice cold methanol and stained with 0.1% crystal violet, scanned and counted. Data is presented as percentage of untreated controls (mean±SD). Fraction affected and combination indexes were calculated according to the method of Chou and Talalay where <1 is indicative of a synergistic drug interaction.
(§3) Subsequently, increasing concentrations of PCI 10213 were combined with a fixed dose of FUdR to evaluate the combined drug effect. In NSCLC cells, concentrations of PCI 10213 ranging from 3.1 μmol/L to 25 μmol/L were combined with 1 μmol/L FUdR. […] The effectiveness of this combination was pronounced in A549 and H460 cells where 12.5 and 25 μmol/L PCI 10213 combined with 1 μmol/L FUdR reduced cell viability by >95% compared to vehicle-treated controls.

Assay [4] concerns colorectal (HCT116), breast (MCF-7) and non-small cell lung (H1299, A549, H358 and H460) cell line models. The assay can be described thus: Colony formation assay, all cell lines evaluated. To be noted: all cell lines evaluated, 0.5 to 2.5 μmol/L. The protocol:
as §2, §3

Assay [5] concerns NSCLC cells (H1299, A549, H358 and H460). The assay is described as follows: Colony formation assay, NSCLC cells. To be noted: FUdR printed as One mol/L, vs vehicle-treated controls. The method, then:
as §2, §3

The test system of assay [6] is HCT-8 colorectal cell line model. The assay is described as follows: Colony formation assay, HCT-8. The settings on record: HCT-8, 1 μmol/L. The protocol: as §2
Colony forming assays were subsequently performed to evaluate the effectiveness of additional PCI compounds alone and in combination with FUdR at reducing cancer cell viability in the HCT-8 colorectal cell line model. […] Subsequently, increasing concentrations of PCI compounds were combined with a fixed dose of 1 μmol/L FUdR to evaluate the combined drug effect.

The test system of another assay is SW620 cells. The assay can be described thus: Colony formation assay, SW620. The settings on record: SW620; PCI 10213 3.1 to 50 μmol/L or FUdR 1 μmol/L alone. The protocol: as §2, §1

Molecules are shown by their SMILES.

Turning to `O=c1[nH]c(=O)n([C@H]2C[C@H](O)[C@@H](CO)O2)cc1F` [FUdR, fluorodeoxyuridine, reference compound], the “colonies formed, FUdR alone” value with HCT116 cells [1] is on record as “dose-dependent decreases in colonies formed”; in assay [4], “dose-dependent decreases in colonies formed”; in assay [6], “no substantial effect on colonies formed”. Besides, the “number of colonies formed, FUdR alone” value is listed as “no significant effect on number of colonies formed” with HCT116 cells [2] (HCT116, 0.5 μmol/L, vs vehicle-treated controls (Example 23)); “no significant impact on the number of colonies formed” in assay [3]; “no significant effect on number of colonies formed” in assay [5]. Moreover, the “number of colonies formed, single agent” value with HCT116 cells [2] (HCT116, PCI 10213 3.1 to 50 μmol/L or FUdR 0.5 μmol/L alone) is “neither PCI 10213 or the fixed dose of FUdR single agent had any significant effect on the number of colonies formed”; in the assay with SW620 cells, “neither PCI 10213 or the fixed dose of FUdR single agent had any significant effect on the number of colonies formed”.
